From ChEMBL document CHEMBL5500363, “Discovery of novel ocotillol derivatives modulating glucocorticoid receptor/NF-κB signaling for the treatment of sepsis” (Eur J Med Chem, 2024)
The source made the active and inactive calls. The calls are words filed in the database; no cut-off is given here.

How the values were obtained:
[1] = Cytotoxicity against mouse RAW264.7 cells assessed as cell viability at 40 uM incubated for 24 hrs by MTT assay relative to control; assay type: toxicity, cell-based; conditions: read-out: Activity
[2] = target: T1, Glucocorticoid receptor (Mus musculus) (UniProt P06537); assay: Binding affinity to glucocorticoid receptor in mouse RAW264.7 cells assessed as increase in thermal stability at 47 to 51 degreeC at 40 uM pretreated for 24 hrs followed by heat exposure for 3 mins and subsequently incubated at room temperature for 3 mins by CETSA; assay type: cell-based; conditions: time 1446.0 min
T1 sequence (whole entry): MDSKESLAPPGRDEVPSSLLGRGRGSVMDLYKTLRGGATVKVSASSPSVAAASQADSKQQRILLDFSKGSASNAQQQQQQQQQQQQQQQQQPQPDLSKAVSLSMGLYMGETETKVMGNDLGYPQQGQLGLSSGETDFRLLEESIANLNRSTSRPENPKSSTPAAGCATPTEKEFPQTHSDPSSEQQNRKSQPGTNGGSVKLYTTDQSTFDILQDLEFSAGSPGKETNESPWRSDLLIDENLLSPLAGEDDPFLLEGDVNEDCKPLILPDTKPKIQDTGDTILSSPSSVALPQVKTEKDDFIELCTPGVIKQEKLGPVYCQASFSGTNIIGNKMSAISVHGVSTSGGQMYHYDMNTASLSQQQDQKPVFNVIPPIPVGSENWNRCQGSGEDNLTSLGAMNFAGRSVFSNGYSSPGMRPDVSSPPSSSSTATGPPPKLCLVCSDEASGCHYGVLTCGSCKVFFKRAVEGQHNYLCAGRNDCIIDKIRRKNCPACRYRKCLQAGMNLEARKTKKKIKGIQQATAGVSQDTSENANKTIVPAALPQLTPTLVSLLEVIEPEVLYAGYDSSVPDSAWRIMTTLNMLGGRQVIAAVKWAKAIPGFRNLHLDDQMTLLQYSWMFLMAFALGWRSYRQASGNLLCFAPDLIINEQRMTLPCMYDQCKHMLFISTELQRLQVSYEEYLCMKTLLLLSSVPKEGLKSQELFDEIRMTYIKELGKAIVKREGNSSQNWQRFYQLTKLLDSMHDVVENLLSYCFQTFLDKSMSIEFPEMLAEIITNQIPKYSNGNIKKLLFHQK

RAW264.7 = assay: Upregulation of glucocorticoid receptor expression in LPS-treated mouse RAW264.7 cells pretreated for 2 hrs followed by LPS stimulation for 24 hrs by Western blot analysis; assay type: functional, cell-based; conditions: time 26.0 hrs
[3] = target: T1, Glucocorticoid receptor (Mus musculus); assay: Modulation of glucocorticoid receptor in LPS-treated mouse RAW264.7 cells assessed as protein translocation from cytoplasm to nucleus at 20 uM pretreated for 12 hrs followed by LPS stimulation for 2 hrs by immunofluorescence based analysis; assay type: subcellular; conditions: filed as modulator, time 14.0 hrs
Mus musculus [4] = assay: Upregulation of glucocorticoid receptor expression in liver of LPS-induced sepsis BALB/c mouse model at 7.5 to 30 mg/kg administered via gavage for 3 days followed by LPS treatment for 6 hrs by immunofluorescence analysis; assay type: functional, organism-based; conditions: dose 7.5-30 mg/kg, time 78.0 hrs
Mus musculus [5] = assay: Downregulation of I-kappa-B-alpha phosphorylation in liver of LPS-induced sepsis BALB/c mouse model at 7.5 to 30 mg/kg administered via gavage for 3 days followed by LPS treatment for 6 hrs by Western blot analysis; assay type: functional, organism-based; conditions: dose 7.5-30 mg/kg, time 78.0 hrs
Mus musculus [6] = assay: Anti-septic activity in LPS-induced sepsis BALB/c mouse assessed as increase in survival rate at 7.5 to 30 mg/kg administered via gavage for 3 days followed by LPS treatment for 6 hrs; assay type: functional, organism-based; conditions: dose 7.5-30 mg/kg, time 78.0 hrs
Mus musculus [7] = assay: Anti-septic activity in LPS-induced sepsis BALB/c mouse assessed as reduction in serum TNF-alpha level at 7.5 to 30 mg/kg administered via gavage for 3 days followed by LPS treatment for 6 hrs by ELISA; assay type: functional, organism-based; conditions: dose 7.5-30 mg/kg, time 78.0 hrs
Mus musculus [8] = assay: Anti-septic activity in LPS-induced sepsis BALB/c mouse assessed as reduction in lung tissue damage at 7.5 to 30 mg/kg administered via gavage for 3 days followed by LPS treatment for 6 hrs by H and E staining based analysis; assay type: functional, organism-based; conditions: dose 7.5-30 mg/kg, time 78.0 hrs

Activity [2]: Active
Activity [3]: Active
Structure (SMILES): CC(C)(C)OC(=O)CCC(=O)Nc1nc2c(s1)C[C@]1(C)[C@H]3C[C@@H](O)[C@@H]4C([C@]5(C)CC[C@@H](C(C)(C)O)O5)CC[C@@]4(C)[C@]3(C)CC[C@H]1C2(C)C (some centres undefined)
viability at 24 h, 40 µM [1]: > 90%
Activity (RAW264.7): Active
Activity (Mus musculus [4]): Active
Activity (Mus musculus [5]): Active
Activity (Mus musculus [6]): Active
Activity (Mus musculus [7]): Active
Activity (Mus musculus [8]): Active
